Reference: EPA's ToxValDB 9.5 (doi:10.2903/j.efsa.2013.3131)

Key:
Oryctolagus sp. = conditions: reproduction developmental; body weight
Rattus norvegicus = conditions: for LD50: acute, oral, mortality
Daphnia magna = conditions: chronic/long-term; duration: 21 days; reproduction
Apis mellifera = conditions: acute, mortality
Oncorhynchus mykiss = conditions: acute; duration: 96 hours; mortality
Pimephales promelas = conditions: chronic/long-term; duration: 34 days; other
Landoltia sp. = conditions: chronic/long-term; duration: 7 days; biomass
Bibionidae = conditions: chronic/long-term; other
Pleurozium sp. = conditions: acute; duration: 96 hours; biomass
Neomysis kadiakensis = conditions: acute; duration: 96 hours; mortality

| SMILES | NOAEL (Oryctolagus sp.) [mg/kg-day] | LD50 (Rattus norvegicus) [mg/kg-day] | NOAEL (Rattus norvegicus; subchronic, duration: 90 days) [mg/kg-day] | NOEC (Daphnia magna) [mg/L] | LC50 (Tagia sp.; acute, duration: 14 days, mortality) [mg/kg] | NOEC (Tagia sp.; chronic/long-term, duration: 28 days, reproduction) [mg/kg] | LD50 (Apis mellifera; dermal) [µg/piece] | LD50 (Apis mellifera; oral, unspecified) [µg/piece] | NOEC (Oncorhynchus mykiss) [mg/L] | NOEC (Pimephales promelas) [mg/L] | NOAEL (Rattus norvegicus; chronic, clinical signs) [mg/kg-day] | NOAEL (Rattus norvegicus; chronic, duration: 2 years, F, ophthalmoscopic examination) [mg/kg-day] | NOAEL (Rattus norvegicus; subchronic, duration: 90 days, ophthalmoscopic examination) [mg/kg-day] | NOEC (Landoltia sp.) [mg/L] | LC50 (Colinus virginianus; acute, oral, diet, mortality) [mg/kg-day] | LD50 (Colinus virginianus; acute, oral, mortality) [mg/kg-day] | NOEC (Colinus virginianus; reproduction developmental) [mg/kg-day] | NOEC (Bibionidae) [mg/L] | NOEC (Pleurozium sp.) [mg/L] | NOEC (Neomysis kadiakensis) [mg/L] |
| --- | --- | --- | --- | --- | --- | --- | --- | --- | --- | --- | --- | --- | --- | --- | --- | --- | --- | --- | --- | --- |
| CS(=O)(=O)c1ccc(C(=O)C2C(=O)C(O)CC(O)C2=O)c(Cl)c1COCC(F)(F)F (configuration not stated) | 1 | > 2000 | 12.7 |  |  |  |  |  |  |  |  |  |  |  |  |  |  |  |  |  |
| CS(=O)(=O)c1ccc(C(=O)C2C(=O)CCCC2=O)c(Cl)c1COCC(F)(F)F [Tembotrione] | 1 | > 2000 |  | 5 | 1000 | 1.25 | > 100 | > 92.8 | 100 | 0.604 | 0.8 | 0.04 | 0.07 | 0.0032 | > 1790 | > 2250 | 22.2 | 2 | 0.2 | 0.046 |
